System: Plasmodium falciparum
Assay: GSK_TCMDC: Inhibition of Plasmodium falciparum 3D7 in whole erythrocytes, using parasite LDH activity as an index of growth.
Type: functional, organism-based
Settings: Plasmodium falciparum, 3D7

Compound: COc1ccc2c(N/N=C/c3cccc([N+](=O)[O-])c3)ccnc2c1
- XC50: 846 nM

Compound: CCN1CCC(N(Cc2ccc(-c3ccc(C(F)(F)F)cc3)cc2)C(=O)Cn2c(CCc3cccc(F)c3F)cc(=O)c3ccc(OCc4ccccc4)cc32)CC1
- XC50: 368 nM

Compound: CN1CCC(N(Cc2ccc(-c3ccc(C(F)(F)F)cc3)nc2)C(=O)Cn2c(CCc3cccc(F)c3F)cc(=O)c3ccccc32)CC1
- XC50: 1100 nM

Compound: CC(C)(C)NCc1cc(Nc2ccnc3cc(Cl)ccc23)ccc1F
- XC50: 30.3 nM

Compound: O=C(Nc1ccccc1)Nc1cccc(-c2nn3c(OCC4CCCCN4)cccc3c2-c2ccncc2)c1 (configuration not stated)
- XC50: 858 nM

Compound: Cc1cccc2nc(-c3cccc(-c4ccc(NC(=O)NC5CC5c5ccccc5)cc4)c3)[nH]c12 (configuration not stated)
- XC50: 719 nM

Compound: O=c1[nH]ccc2nc(N[C@@H]3CCNC3)nc(Nc3cc(Cl)cc(Cl)c3)c12
- XC50: 738 nM

Compound: COc1ccc(N2CCN(CCCCNC(=O)c3ccc(NC(=O)c4cc(C(F)(F)F)cc(C(F)(F)F)c4)cc3)CC2)c(OC)c1
- XC50: 153 nM

Compound: COc1ccc(CN2CCC(Oc3cccc(NC(=O)c4ccc(C(F)(F)F)cc4)c3)CC2)cc1
- XC50: 743 nM

Compound: Cc1[nH]c(C)c(-c2cc3ccccc3o2)c(=O)c1Cl
- XC50: 1720 nM

Compound: CCCC1N=C(N)N=C(N)N1c1ccc(C)c(C)c1 (configuration not stated)
- XC50: 73.6 nM

Compound: Cc1ccc(N(CCC(=N)N)Cc2ccccc2)cc1
- XC50: 657 nM

Compound: COc1cc(C2CCN(CCCCNC(=O)c3ccc(NC(=O)c4cc(C(F)(F)F)cc(C(F)(F)F)c4)cc3)CC2)ccc1OC(C)C
- XC50: 154 nM

Compound: O=C(O)C1Cc2c([nH]c3ccccc23)C(c2ccc(Cl)cc2Cl)N1 (configuration not stated)
- XC50: 954 nM

Compound: COc1cccc(CNC(=O)c2ccnc(-c3cccc(CN(C)C4CCN(C)CC4)c3)c2)c1
- XC50: 834 nM

Compound: COc1ccc(Nc2ccnc3cc(-c4ccccn4)ccc23)cc1OC
- XC50: 31.8 nM

Compound: CC(C)(C)c1ccc(CN2CCC(CNC(=O)c3cc(-c4cccc(F)c4)cs3)C2)cc1 (configuration not stated)
- XC50: 898 nM

Compound: Cc1ccc(C(=O)Nc2ccc(OC3CCN(CCC(C)C)C3)c(Cl)c2)cc1 (configuration not stated)
- XC50: 991 nM

Compound: COc1ccc2ncc(F)c([C@H](O)CN3CCC(NCc4ccc5c(c4)NC(=O)CO5)CC3)c2c1
- XC50: 172 nM

Compound: Cc1cccn2c(=O)c3cc(C(=O)NCc4cccnc4)c(=N)n(CCc4ccccc4)c3nc12
- XC50: 714 nM

Compound: Cc1cc(-c2ccc3c(c2)CCN(CCC2CCC(NC(=O)/C=C/c4cccc(Cl)c4)CC2)CC3)on1 (configuration not stated)
- XC50: 589 nM

Compound: O=C(NCC1CCC(C(=O)NCCc2ccc(Cl)c(Cl)c2)CC1)c1ccc(O)c(-c2ccc(Cl)c(Cl)c2)c1 (configuration not stated)
- XC50: 895 nM

Compound: N=C(N)NN=C1C=Cc2cccc3cccc1c23
- XC50: 609 nM

Compound: O=C(/C=C/c1ccc(Cl)cc1)NCCCCCN1CCCC(C(=O)Nc2cccc(Cl)c2)C1 (configuration not stated)
- XC50: 208 nM

Compound: c1ccc(CCNCc2ccc(-c3ccc(CNC4CCN(Cc5ccccc5)CC4)cc3)nc2)cc1
- XC50: 446 nM

Compound: COc1cc(Nc2nccc(N3CCC(NC(=O)c4cccc(NC(C)=O)c4)C3)n2)cc(OC)c1OC (configuration not stated)
- XC50: 828 nM

Compound: CCCCCCN1CCC(NCc2ccc(OCCN3CCCC3)cc2)CC1
- XC50: 719 nM

Compound: Cc1ccc(F)c(OCC2CCN(c3ccc(C(=O)NC4CC4)cn3)CC2)c1
- XC50: 733 nM

Compound: COc1ccc2[nH]ccc(=NN=Cc3ccc(Cl)cc3)c2c1
- XC50: 211 nM

Compound: COc1ccc(-c2ccc(NC(=O)c3cccc(Cl)c3)cc2)cc1CN1CCN(C)CC1
- XC50: 951 nM

Compound: COc1ccc(Cl)cc1NC(=O)Nc1ccnc2ccccc12
- XC50: 675 nM

Compound: COc1cc(OC)cc(-c2nn(-c3ccc([N+](=O)[O-])cc3C#N)c(=S)n2CC2CCCO2)c1 (configuration not stated)
- XC50: 852 nM

Compound: O=C(Nc1ccccc1)N1CCOC(CCN2CCC(F)(F)CC2)(c2ccc(Cl)c(Cl)c2)C1 (configuration not stated)
- XC50: 185 nM

Compound: COc1cc2c(cc1CCNCCCCNCCc1cc3c(cc1OC)CCCC3)CCCC2
- XC50: 996 nM

Compound: O=C(Nc1ccc2[nH]c(-c3ccc4nc(NC(=O)C5CCCCC5)sc4c3)nc2c1)C1CCCCC1
- XC50: 612 nM

Compound: COc1cc(CNC[C@@H](O)[C@H](Cc2ccccc2)NC(=O)c2cc(OC(C)C)cc(N3CCCCS3(=O)=O)c2)cc(OC)c1
- XC50: 590 nM

Compound: O=C(Nc1cccc(-c2ccc(-c3nc4cc(C(F)(F)F)ccc4[nH]3)cc2)c1)Nc1ccc(Cl)c(Cl)c1
- XC50: 889 nM

Compound: Cc1cccc(C)c1N1CCN(C2CCC(NC(=O)/C=C/c3ccccc3)CC2)CC1 (configuration not stated)
- XC50: 1180 nM

Compound: CCCN(CCC)c1nn2c(=O)c(C(=O)N3CCN(Cc4ccccc4)CC3)cnc2s1
- XC50: 999 nM

Compound: CCCCCCCc1[nH]c2ccccc2c(=O)c1C
- XC50: 509 nM

Compound: Cn1ncc2c3c(CCN4CCC(NCc5ccc6c(c5)NC(=O)CO6)CC4)c(Cl)cnc3ccc21
- XC50: 488 nM

Compound: N=C(N)NN=Cc1c2ccccc2c(Cl)c2c(Cl)cccc12
- XC50: 878 nM

Compound: COc1ccc(OCC(=O)Nc2nc(-c3ccc(OC)cc3)c(C)s2)cc1
- XC50: 1950 nM

Compound: COc1ccc(C(=O)CCC(=O)N(Cc2ccc(-c3ccc(CNCCc4ccc(S(C)(=O)=O)cc4)cn3)cc2)C2CC3CCC2C3)cc1F (configuration not stated)
- XC50: 927 nM

Compound: COc1ccc2c(O)c(Br)c(C)nc2c1
- XC50: 192 nM

Compound: CCOC(=O)N1CCN(CCCCCNc2cc(C)nc(NC(=N)Nc3ccc(Cl)cc3)n2)CC1
- XC50: 149 nM

Compound: CNC(=O)Cc1ccc(C(=O)Nc2cccc(-c3cccc(-c4nc5cc(C(F)(F)F)ccc5[nH]4)c3)c2)cc1
- XC50: 440 nM

Compound: OC(CNC1CCCCC1)c1ccc(Cl)c(Cl)c1 (configuration not stated)
- XC50: 698 nM

Compound: COc1ccc2nccc([C@@H](O)CN3CCC(NC(=O)/C=C/c4c[nH]c5c(C)cccc45)CC3)c2c1
- XC50: 135 nM

Compound: CCC(C)Oc1ccc2nc(N)nc(N)c2c1Cl (configuration not stated)
- XC50: 177 nM

Compound: Cc1[nH]c2cc(F)ccc2c1C1=CCN(CCCCC2(C)C(=O)Nc3ccccc32)CC1 (configuration not stated)
- XC50: 292 nM

Compound: COc1ccc(C2CCN(CCN3CCC(NC(=O)c4ccc(-c5cccc(C(F)(F)F)c5C(F)(F)F)cc4)CC3)CC2)c(OC)c1
- XC50: 419 nM

Compound: O=C(Nc1ccc(OC2CCN(Cc3ccsc3)C2)c(Cl)c1)c1ccc(F)cc1 (configuration not stated)
- XC50: 943 nM

Compound: COc1cccc2sc(Nc3nc(-c4ccccn4)cs3)nc12
- XC50: 805 nM

Compound: CCN(CCO)CCc1cccc(Nc2nccc(-c3c(-c4ccc(NC(=O)C(C)(C)C)cc4)nn4ccccc34)n2)c1
- XC50: 714 nM

Compound: COc1cc(N)c(Cl)cc1C(=O)NCC1CCN(c2nc(C)cc(C)n2)CC1
- XC50: 509 nM

Compound: COc1ccc(-n2nc(C)c3c2NC(=O)CC3c2ccccc2OCc2ccccc2F)cc1 (configuration not stated)
- XC50: 901 nM

Compound: O=C(Nc1cc(Cl)ccc1O)c1ccc(Oc2ccc(C(=O)Nc3cc(Cl)ccc3O)cc2)cc1
- XC50: 920 nM

Compound: COc1ccccc1Cn1ccnc1SCC(=O)Nc1cc(C(F)(F)F)ccc1Cl
- XC50: 99.9 nM

Compound: CC[C@H]1CN2CC[C@H]1C[C@H]2[C@H](O)c1cc(-c2cccc(C)c2)nc2ccc(OC)cc12
- XC50: 163 nM

Compound: C=Cc1cc(OC)c2c(c1)c(=O)oc1c2cc(OC)c2c(O)ccc([C@H]3O[C@H]([C@H](C)O)[C@H](O)[C@H]3O)c21
- XC50: 794 nM

Compound: Cc1cc(=NN=Cc2ccccc2Cl)c2cc(C(F)(F)F)ccc2[nH]1
- XC50: 858 nM

Compound: FC(F)(F)c1cc(Nc2ncnc3ccc(Br)cc23)ccc1OCc1ccccc1
- XC50: 1080 nM

Compound: Cc1[nH]c(C)c(-c2cccc(-c3ccc(OC(F)(F)F)cc3)c2)c(=O)c1Br
- XC50: 410 nM

Compound: O=C(Nc1cccc(OCCN2CCCC2)c1)Nc1ccc(Cl)c(Cl)c1
- XC50: 775 nM

Compound: COc1ccc(CCNCC(O)COc2nccc3c(S(=O)(=O)N4CCCNCC4)cccc23)cc1OC (configuration not stated)
- XC50: 269 nM

Compound: O=C(NCCCCCN1CCC(c2c[nH]c3ccccc23)CC1)c1ccc(-c2ccccc2)nc1
- XC50: 1020 nM

Compound: COc1ccc(C(=O)Nc2nonc2-c2ccc(OC)c(OC)c2)cc1Cl
- XC50: 675 nM

Compound: O=c1cnc2ccc(F)cc2n1CCN1CCC(NCc2cc(-c3ccccc3)cs2)CC1
- XC50: 863 nM

Compound: CCc1cn2c3c(cc(C(=O)N[C@@H](Cc4ccccc4)[C@H](O)CNC(C)(C)c4cccc(OC)c4)cc13)N(C)S(=O)(=O)C2
- XC50: 61.7 nM

Compound: c1cncc(-c2cc(N3CCc4ccccc4C3)nc(-c3ccncc3)n2)c1
- XC50: 40.9 nM

Compound: Fc1ccc2c(NN=Cc3ccccc3)ccnc2c1
- XC50: 739 nM

Compound: COc1cc(C(=O)Nc2cccc(-c3cn4ccc(C)cc4n3)c2)cc(OC)c1OC
- XC50: 761 nM

Compound: N=C(N)NN=Cc1cc2ccccc2c2ccccc12
- XC50: 180 nM

Compound: CCOc1cc(C)ccc1N1CCN(CCN2CCC(NC(=O)c3ccc(-c4ccc(C#N)cc4)cc3)CC2)CC1
- XC50: 1430 nM

Compound: COc1cc(Cc2cnc(NCCN3CCNCC3)nc2N)ccc1OCc1ccc(C(F)(F)F)cc1
- XC50: 922 nM

Compound: CCOC(=O)c1ccc(N2CCN(c3cc(C)ccc3C)CC2)c(NC(=O)Nc2ccc(Cl)c(Cl)c2)c1
- XC50: 712 nM

Compound: c1ccc2[nH]c(-c3ccc(-c4ccc(CNCC5CCCO5)cc4)s3)nc2c1 (configuration not stated)
- XC50: 869 nM

Compound: COC(=O)Nc1ccc(-c2ccc(C(=O)NC3CCN(C[C@H](O)c4ccnc5ccc(OC)cc45)CC3)cc2)c(C)c1
- XC50: 685 nM

Compound: Brc1ccsc1-c1nc(NCCC(c2ccccc2)c2ccccc2)no1
- XC50: 1080 nM

Compound: Cn1nccc1C(=O)NCCNCc1cccc(-c2ccc(-c3nc4cc(C(F)(F)F)ccc4[nH]3)cc2)c1
- XC50: 122 nM

Compound: Oc1c(Cl)cc(Nc2nccc(Nc3ccc(Oc4ccccc4)cc3)n2)cc1Cl
- XC50: 786 nM

Compound: Cc1cc(=NN=Cc2ccccc2)c2cc(F)ccc2[nH]1
- XC50: 579 nM

Compound: COCCNCc1cccc(-c2cccc(CN(C(=O)Nc3ccccc3)C3CCN(Cc4ccccc4)CC3)c2)c1
- XC50: 126 nM

Compound: Cc1cc(N(C)C2CCN(C)C2)nc(Nc2ccccc2Cl)n1 (configuration not stated)
- XC50: 754 nM

Compound: CCCCCN1CCCC(CNS(=O)(=O)c2cccc(C(=O)Nc3ccc(C(F)(F)F)cc3)c2)C1 (configuration not stated)
- XC50: 829 nM

Compound: CCCNCc1ccc(-c2ccc(CN(CCOC)C(=O)c3cscn3)cc2)nc1
- XC50: 178 nM

Compound: O=C(/C=C/c1ccc(Cl)c(Cl)c1)NCCCCCN1CCC(CCNC(=O)Cc2ccc(Cl)cc2)CC1
- XC50: 1160 nM

Compound: CN(c1ccc(NC(=O)Nc2cc(C(C)(C)C)on2)cc1)c1ccnc(NCCN2CCOCC2)n1
- XC50: 1120 nM

Compound: Cc1ccc(NC(=O)NC2CCN(c3ccnc4cc(Cl)ccc34)CC2)cc1
- XC50: 315 nM

Compound: N=C(N)NCCCN(Cc1ccccc1)c1ccccc1
- XC50: 579 nM

Compound: OCc1ccc(-c2cncc(Nc3cccc(Cl)c3)c2)cc1
- XC50: 74.3 nM

Compound: Cc1nc(N)nc(N)c1Oc1cccc(Cl)c1
- XC50: 871 nM

Compound: O=C(/C=C/c1ccc(Cl)c(Cl)c1)NCCCCCN1CCC(NC(=O)Nc2ccc(F)c(Cl)c2)CC1
- XC50: 619 nM

Compound: Cc1ccc(S(=O)(=O)c2nc(S(=O)(=O)c3ccccc3)sc2NCC2CCCO2)cc1 (configuration not stated)
- XC50: 1020 nM

Compound: O=S(=O)(Nc1cccc(CCN2CCC(N3CCCCC3)CC2)c1)c1ccc(Cl)cc1
- XC50: 916 nM

Compound: COC(=O)c1cccc(NC(=O)NC2CCN(c3ccnc(Nc4cc(OC)c(OC)c(OC)c4)n3)C2)c1 (configuration not stated)
- XC50: 512 nM

From ChEMBL document CHEMBL1157539, “Thousands of chemical starting points for antimalarial lead identification” (Nature, 2010)
